{"source": "patent US20260262643A1", "about": "“HERBICIDAL BENZOXAZINES” (FMC CORPORATION, priority 2022, published 2026)", "key": {"barnyardgrass [1]": {"system": "barnyardgrass", "experiment": "Test C preemergence", "assay_type": "in vivo, Echinochloa crusgalli", "how_it_was_run": "(§1)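 Soil-applied (pre) and foliar (post, 1–2 leaf, 2–10 cm) sprays; surfactant-containing non-phytotoxic solvent vehicle; loam/sand substrate. Readout: visual % control at 10 d, greenhouse, versus untreated.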"}, "blackgrass [2]": {"system": "blackgrass", "experiment": "Test C preemergence", "assay_type": "in vivo, Alopecurus myosuroides", "how_it_was_run": "as §1"}, "corn [3]": {"system": "corn", "experiment": "Test C preemergence", "assay_type": "in vivo, Zea mays", "how_it_was_run": "as §1"}, "foxtail, giant [4]": {"system": "foxtail, giant", "experiment": "Test C preemergence", "assay_type": "in vivo, Setaria faberi", "how_it_was_run": "as §1"}, "kochia [5]": {"system": "kochia", "experiment": "Test C preemergence", "assay_type": "in vivo, Bassia scoparia", "how_it_was_run": "as §1"}, "oat, wild [6]": {"system": "oat, wild", "experiment": "Test C preemergence", "assay_type": "in vivo, Avena fatua", "how_it_was_run": "as §1"}, "pigweed, palmer [7]": {"system": "pigweed, palmer", "experiment": "Test C preemergence", "assay_type": "in vivo, Amaranthus palmeri", "how_it_was_run": "as §1"}, "ragweed [8]": {"system": "ragweed", "experiment": "Test C preemergence", "assay_type": "in vivo, Ambrosia artemisiifolia", "how_it_was_run": "as §1"}, "ryegrass, Italian [9]": {"system": "ryegrass, Italian", "experiment": "Test C preemergence", "assay_type": "in vivo, Lolium multiflorum", "how_it_was_run": "as §1"}, "soybean [10]": {"system": "soybean", "experiment": "Test C preemergence", "assay_type": "in vivo, Glycine max", "how_it_was_run": "as §1"}, "wheat [11]": {"system": "wheat", "experiment": "Test C preemergence", "assay_type": "in vivo, Triticum aestivum", "how_it_was_run": "as §1"}, "barnyardgrass [12]": {"system": "barnyardgrass", "experiment": "Test C postemergence", "assay_type": "in vivo, Echinochloa crusgalli", "conditions": "10 days, 0 to 100 scale (0 no effect, 100 complete control)", "how_it_was_run": "as §1"}, "blackgrass [13]": {"system": "blackgrass", "experiment": "Test C postemergence", "assay_type": "in vivo, Alopecurus myosuroides", "conditions": "10 days, 0 to 100 scale (0 no effect, 100 complete control)", "how_it_was_run": "as §1"}, "corn [14]": {"system": "corn", "experiment": "Test C postemergence", "assay_type": "in vivo, Zea mays", "conditions": "10 days, 0 to 100 scale (0 no effect, 100 complete control)", "how_it_was_run": "as §1"}, "foxtail, giant [15]": {"system": "foxtail, giant", "experiment": "Test C postemergence", "assay_type": "in vivo, Setaria faberi", "conditions": "10 days, 0 to 100 scale (0 no effect, 100 complete control)", "how_it_was_run": "as §1"}, "kochia [16]": {"system": "kochia", "experiment": "Test C postemergence", "assay_type": "in vivo, Bassia scoparia", "conditions": "10 days, 0 to 100 scale (0 no effect, 100 complete control)", "how_it_was_run": "as §1"}, "oat, wild [17]": {"system": "oat, wild", "experiment": "Test C postemergence", "assay_type": "in vivo, Avena fatua", "conditions": "10 days, 0 to 100 scale (0 no effect, 100 complete control)", "how_it_was_run": "as §1"}, "pigweed, palmer [18]": {"system": "pigweed, palmer", "experiment": "Test C postemergence", "assay_type": "in vivo, Amaranthus palmeri", "conditions": "10 days, 0 to 100 scale (0 no effect, 100 complete control)", "how_it_was_run": "as §1"}, "ragweed [19]": {"system": "ragweed", "experiment": "Test C postemergence", "assay_type": "in vivo, Ambrosia artemisiifolia", "conditions": "10 days, 0 to 100 scale (0 no effect, 100 complete control)", "how_it_was_run": "as §1"}, "ryegrass, Italian [20]": {"system": "ryegrass, Italian", "experiment": "Test C postemergence", "assay_type": "in vivo, Lolium multiflorum", "conditions": "10 days, 0 to 100 scale (0 no effect, 100 complete control)", "how_it_was_run": "as §1"}, "soybean [21]": {"system": "soybean", "experiment": "Test C postemergence", "assay_type": "in vivo, Glycine max", "conditions": "10 days, 0 to 100 scale (0 no effect, 100 complete control)", "how_it_was_run": "as §1"}, "wheat [22]": {"system": "wheat", "experiment": "Test C postemergence", "assay_type": "in vivo, Triticum aestivum", "conditions": "10 days, 0 to 100 scale (0 no effect, 100 complete control)", "how_it_was_run": "as §1"}, "galium": {"system": "galium", "experiment": "Test C postemergence", "assay_type": "in vivo, Galium aparine", "conditions": "10 days, 0 to 100 scale (0 no effect, 100 complete control)", "how_it_was_run": "as §1"}, "horseweed": {"system": "horseweed", "experiment": "Test C postemergence", "assay_type": "in vivo, Erigeron canadensis", "conditions": "10 days, 0 to 100 scale (0 no effect, 100 complete control)", "how_it_was_run": "as §1"}, "barnyardgrass [23]": {"system": "barnyardgrass", "experiment": "Test D flooded paddy test", "assay_type": "in vivo, Echinochloa crus-galli", "conditions": "250 g ai/ha, applied to paddy water, visual rating after 13 to 14 days, scale 0 to 100 (0 no effect, 100 complete control)", "how_it_was_run": "(§2)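 Rating scale 0–100 (0 no effect, 100 complete control), visual, versus controls. Readout at 13–14 days after in-water application to 2-leaf plants in pots flooded 3 cm deep.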"}, "ducksalad": {"system": "ducksalad", "experiment": "Test D flooded paddy test", "assay_type": "in vivo, Heteranthera limosa", "conditions": "250 g ai/ha, applied to paddy water, visual rating after 13 to 14 days, scale 0 to 100 (0 no effect, 100 complete control)", "how_it_was_run": "as §2"}, "rice": {"system": "rice", "experiment": "Test D flooded paddy test", "assay_type": "in vivo, Oryza sativa", "conditions": "250 g ai/ha, applied to paddy water, visual rating after 13 to 14 days, scale 0 to 100 (0 no effect, 100 complete control)", "how_it_was_run": "as §2"}, "sedge, umbrella": {"system": "sedge, umbrella", "experiment": "Test D flooded paddy test", "assay_type": "in vivo, Cyperus difformis", "conditions": "250 g ai/ha, applied to paddy water, visual rating after 13 to 14 days, scale 0 to 100 (0 no effect, 100 complete control)", "how_it_was_run": "as §2"}, "[24]": {"conditions": "500 g ai/ha, preemergence, 0 to 100 scale (0 no effect, 100 complete control)"}, "[25]": {"conditions": "Preemergence, 125 g ai/ha, 0 to 100 scale, 0 no effect, 100 complete control"}}}
{"smiles": "CC(C)c1ncn(-c2cc(C(=O)N3CC(C(F)(F)F)Oc4c(Cl)cccc43)ccn2)n1", "note": "(racemic) [Compound 329]", "values": [{"measurement": "Barnyardgrass plant response rating", "setting": "barnyardgrass [1]; [24]", "value": 100}, {"measurement": "Plant response rating, Barnyardgrass", "setting": "barnyardgrass [1]; [25]", "value": 70}, {"measurement": "Blackgrass plant response rating", "setting": "blackgrass [2]; [24]", "value": 80}, {"measurement": "Plant response rating, Blackgrass", "setting": "blackgrass [2]; [25]", "value": 60}, {"measurement": "Corn plant response rating", "setting": "corn [3]; [24]", "value": 40}, {"measurement": "Plant response rating, Corn", "setting": "corn [3]; [25]", "value": 20}, {"measurement": "Foxtail, Giant plant response rating", "setting": "foxtail, giant [4]; [24]", "value": 100}, {"measurement": "Plant response rating, Foxtail, Giant", "setting": "foxtail, giant [4]; [25]", "value": 100}, {"measurement": "Kochia plant response rating", "setting": "kochia [5]; [24]", "value": 100}, {"measurement": "Plant response rating, Kochia", "setting": "kochia [5]; [25]", "value": 40}, {"measurement": "Oat, Wild plant response rating", "setting": "oat, wild [6]; [24]", "value": 80}, {"measurement": "Plant response rating, Oat, Wild", "setting": "oat, wild [6]; [25]", "value": 30}, {"measurement": "Pigweed, Palmer plant response rating", "setting": "pigweed, palmer [7]; [24]", "value": 100}, {"measurement": "Plant response rating, Pigweed, Palmer", "setting": "pigweed, palmer [7]; [25]", "value": 90}, {"measurement": "Ragweed plant response rating", "setting": "ragweed [8]; [24]", "value": 60}, {"measurement": "Plant response rating, Ragweed", "setting": "ragweed [8]; [25]", "value": 0}, {"measurement": "Ryegrass, Italian plant response rating", "setting": "ryegrass, Italian [9]; [24]", "value": 100}, {"measurement": "Plant response rating, Ryegrass, Italian", "setting": "ryegrass, Italian [9]; [25]", "value": 70}, {"measurement": "Soybean plant response rating", "setting": "soybean [10]; [24]", "value": 80}, {"measurement": "Plant response rating, Soybean", "setting": "soybean [10]; [25]", "value": 0}, {"measurement": "Wheat plant response rating", "setting": "wheat [11]; [24]", "value": 30}, {"measurement": "Plant response rating, Wheat", "setting": "wheat [11]; [25]", "value": 10}, {"measurement": "Plant response rating, Barnyardgrass", "setting": "barnyardgrass [12]; 500 g ai/ha, postemergence", "value": 60}, {"measurement": "Plant response rating, Barnyardgrass", "setting": "barnyardgrass [12]; Postemergence, 125 g ai/ha", "value": 10}, {"measurement": "Plant response rating, Blackgrass", "setting": "blackgrass [13]; 500 g ai/ha, postemergence", "value": 90}, {"measurement": "Plant response rating, Blackgrass", "setting": "blackgrass [13]; Postemergence, 125 g ai/ha", "value": 50}, {"measurement": "Plant response rating, Corn", "setting": "corn [14]; 500 g ai/ha, postemergence", "value": 80}, {"measurement": "Plant response rating, Corn", "setting": "corn [14]; Postemergence, 125 g ai/ha", "value": 30}, {"measurement": "Plant response rating, Foxtail, Giant", "setting": "foxtail, giant [15]; 500 g ai/ha, postemergence", "value": 90}, {"measurement": "Plant response rating, Foxtail, Giant", "setting": "foxtail, giant [15]; Postemergence, 125 g ai/ha", "value": 50}, {"measurement": "Plant response rating, Kochia", "setting": "kochia [16]; 500 g ai/ha, postemergence", "value": 90}, {"measurement": "Plant response rating, Kochia", "setting": "kochia [16]; Postemergence, 125 g ai/ha", "value": 70}, {"measurement": "Plant response rating, Oat, Wild", "setting": "oat, wild [17]; 500 g ai/ha, postemergence", "value": 80}, {"measurement": "Plant response rating, Oat, Wild", "setting": "oat, wild [17]; Postemergence, 125 g ai/ha", "value": 30}, {"measurement": "Plant response rating, Pigweed, Palmer", "setting": "pigweed, palmer [18]; 500 g ai/ha, postemergence", "value": 80}, {"measurement": "Plant response rating, Pigweed, Palmer", "setting": "pigweed, palmer [18]; Postemergence, 125 g ai/ha", "value": 20}, {"measurement": "Plant response rating, Ragweed", "setting": "ragweed [19]; 500 g ai/ha, postemergence", "value": 40}, {"measurement": "Plant response rating, Ragweed", "setting": "ragweed [19]; Postemergence, 125 g ai/ha", "value": 40}, {"measurement": "Plant response rating, Ryegrass, Italian", "setting": "ryegrass, Italian [20]; 500 g ai/ha, postemergence", "value": 70}, {"measurement": "Plant response rating, Ryegrass, Italian", "setting": "ryegrass, Italian [20]; Postemergence, 125 g ai/ha", "value": 50}, {"measurement": "Plant response rating, Soybean", "setting": "soybean [21]; 500 g ai/ha, postemergence", "value": 100}, {"measurement": "Plant response rating, Soybean", "setting": "soybean [21]; Postemergence, 125 g ai/ha", "value": 100}, {"measurement": "Plant response rating, Wheat", "setting": "wheat [22]; 500 g ai/ha, postemergence", "value": 50}, {"measurement": "Plant response rating, Wheat", "setting": "wheat [22]; Postemergence, 125 g ai/ha", "value": 20}, {"measurement": "Plant response rating, Galium", "setting": "galium; 500 g ai/ha, postemergence", "value": 100}, {"measurement": "Plant response rating, Galium", "setting": "galium; Postemergence, 125 g ai/ha", "value": 60}, {"measurement": "Plant response rating, Horseweed", "setting": "horseweed; 500 g ai/ha, postemergence", "value": 0}, {"measurement": "Plant response rating, Horseweed", "setting": "horseweed; Postemergence, 125 g ai/ha", "value": 0}, {"measurement": "Plant response rating, Barnyardgrass (Flood)", "setting": "barnyardgrass [23]", "value": 0}, {"measurement": "Plant response rating, Ducksalad (Flood)", "setting": "ducksalad", "value": 0}, {"measurement": "Plant response rating, Rice (Flood)", "setting": "rice", "value": 0}, {"measurement": "Plant response rating, Sedge, Umbrella (Flood)", "setting": "sedge, umbrella", "value": 0}]}
